A short description of series [1]: Cell absorption test. Type of series: cell-based.
The nature of series [2]: Cytotoxicity test (CCK8 cell viability). It counts as cell-based. The conditions noted are these: CHO-K1 cells, FIG. 5, molar ratio 20/1 and 40/1, siRNA 50 nM, read-out: cell survival rate. The procedure:
CHO-K1 cells were seeded at 5,000-8,000 cells/well in clear, flat-bottomed, 96-well plates in triplicate and grown for 24 h at 37° C. with 5% CO2. The complexes or control samples were added to the cells in 150 μl of standard media and the cells were incubated for 48 h. The CCK8 assay was used to determine cell viability, according to the manufacturer's instructions. Briefly, […] of CCK8 stock was added to each well and incubated for 2 h at 37° C. in 5% CO2. Then, the cultures were removed from the incubator and the absorbance at 570 nm was read on a plate reader (FLUOstar OPTIMA, BMG, Germany). The background absorbance of the multiwell plates at 690 nm was determined and subtracted from the 570 nm measurement. The results obtained from triplicate wells were averaged and normalized using the value obtained for non-treated cells.

The conditions of series [3]: reported in WO2013/075244 A1; cited from earlier work.
The conditions of series [4]: reported in WO2013/075244 A1; cited from earlier work. The source holds these as a separate data set.

Where a SMILES comes first, the peptide text is derived from it.

Regarding “CH3(CH2)16CONH-HHHHHHHHHHHHHHHHRRRRRRRR-CONH2 (stearyl-HHHHHHHHHHHHHHHHRRRRRRRR-NH2) [STR-HR]”, the “absorption efficiency compared with lipid 2000” value in series [1] is recorded as “higher than that of lipid 2000”. Regarding `CC(=O)NCC(=O)N[C@@H](CC(C)C)C(=O)N[C@@H](Cc1c[nH]c2ccccc12)C(=O)N[C@@H](Cc1c[nH]cn1)C(=O)N[C@@H](C)C(=O)N[C@@H](Cc1c[nH]c2ccccc12)C(=O)N[C@@H](CC(C)C)C(=O)N[C@@H](Cc1c[nH]c2ccccc12)C(=O)N[C@@H](Cc1c[nH]cn1)C(=O)N[C@@H](C)C(=O)N[C@@H](Cc1ccccc1)C(=O)N[C@@H](CC(C)C)C(=O)N[C@@H](C)C(=O)N[C@@H](CO)C(=O)N[C@@H](Cc1c[nH]cn1)C(=O)N[C@@H](CCCNC(=N)N)C(=O)N[C@@H](CC(C)C)C(=O)N[C@@H](CC(C)C)C(=O)N[C@@H](CCCNC(=N)N)C(=O)N[C@@H](CC(C)C)C(=O)N[C@@H](CC(C)C)C(=O)N[C@@H](CCCNC(=N)N)C(N)=O` [GL5, CH3CONH-GLWHAWLWHAFLASHR LLRLLR-CONH2] (Ac-GLWHAWLWHAFLASHRLLRLLR-NH2), the viability at 48 h in series [2] is approximately 105%.

Consider “GLWRAWLWKAFLASNWRRLLRLLR (Synthetic sequence - peptide GL1)”, for which the gene silencing efficiency entry in series [3] was “about 50%”. Besides, the “siRNA delivery (uptake) efficiency” value in series [4] is listed as “about 95%”.
